{
  "source": "patent US6090834A",
  "about": "“Substituted oxazoles for the treatment of inflammation” (G.D. Searle & Co., priority 1998, dated 2000)",
  "key": {"COX-1": {"test_system": "COX-1", "assay": "COX-1 activity in vitro (PGE2 formed, ELISA)", "assay_type": "biochemical, human or murine", "conditions": "recombinant enzyme, arachidonic acid 10 μM, pH 8.0; read-out: COX-1 ID50", "description": "(§1) Evaluation of COX I and COX II activity in vitro\n(§2) The COX-2 inhibition activity of the compounds of this invention illustrated in the Examples was determined by the following methods. a. Preparation of recombinant COX baculoviruses\n(§3) Recombinant COX-1 and COX-2 were prepared as described by Gierse et al, [J. Biochem., 305, 479-84 (1995)]. A 2.0 kb fragment containing the coding region of either human or murine COX-1 or human or murine COX-2 was cloned into a BamH1 site of the baculovirus transfer vector pVL1393 (Invitrogen) to generate the baculovirus transfer vectors for COX-1 and COX-2 in a manner similar to the method of D. R. O'Reilly et al (Baculovirus Expression Vectors: A Laboratory Manual (1992)). Recombinant baculoviruses were isolated by transfecting 4 μg of baculovirus transfer vector DNA into SF9 insect cells (2×10^8) along with 200 ng of linearized baculovirus plasmid DNA by the calcium phosphate method. See M. D. Summers and G. E. Smith, A Manual of Methods for Baculovirus vectors and Insect Cell Culture Procedures, Texas Agric. Exp. Station Bull. 1555 (1987). Recombinant viruses were purified by three rounds of plaque purification and high titer (10^7 -10^8 pfu/ml) stocks of virus were prepared. For large scale production, SF9 insect cells were infected in 10 liter fermentors (0.5×10^6 /ml) with the recombinant baculovirus stock such that the multiplicity of infection was 0.1. After 72 hours the cells were centrifuged and the cell pellet homogenized in Tris/Sucrose (50 mM: 25%, pH 8.0) containing 1% 3-[(3-cholamidopropyl)dimethylammonio]-1-propanesulfonate (CHAPS). The homogenate was centrifuged at 10,000×G for 30 minutes, and the resultant supernatant was stored at -80° C. before being assayed for COX activity. […]\n(§4) b. Assay for COX-1 and COX-2 activity\n(§5) COX activity was assayed as PGE2 formed/μg protein/time using an ELISA to detect the prostaglandin released. CHAPS-solubilized insect cell membranes containing the appropriate COX enzyme were incubated in a potassium phosphate buffer (50 mM, pH 8.0) containing epinephrine, phenol, and heme with the addition of arachidonic acid (10 μM). Compounds were pre-incubated with the enzyme for 10-20 minutes prior to the addition of arachidonic acid. Any reaction between the arachidonic acid and the enzyme was stopped after ten minutes at 37° C./room temperature by transferring 40 μl of reaction mix into 160 μl ELISA buffer and 25 μM indomethacin. The PGE2 formed was measured by standard ELISA technology (Cayman Chemical)."}, "carrageenan foot edema": {"test_system": "carrageenan foot edema", "assay": "Rat Carrageenan Foot Pad Edema Test", "assay_type": "in vivo, Male Sprague-Dawley rats", "conditions": "20 mg/kg body weight, oral, 3 h after carrageenan", "description": "Rat Carrageenan Foot Pad Edema Test\nMale Sprague-Dawley rats were selected in each group so that the average body weight was as close as possible. Rats were fasted with free access to water for over sixteen hours prior to the test. […] One hour later a subplantar injection of 0.1 mL of 1% solution of carrageenan/sterile 0.9% saline was administered and the volume of the injected foot was measured with a displacement plethysmometer connected to a pressure transducer with a digital indicator. Three hours after the injection of the carrageenan, the volume of the foot was again measured."}, "COX-2": {"test_system": "COX-2", "assay": "COX-2 activity in vitro (PGE2 formed, ELISA)", "assay_type": "biochemical, human or murine", "conditions": "recombinant enzyme, arachidonic acid 10 μM, pH 8.0; read-out: COX II ID50", "description": "as §1, §2, §3, §4, §5"}, "[1]": {"test_system": "hyperalgesic foot withdrawal", "assay": "Rat Carrageenan-induced Analgesia Test", "assay_type": "in vivo, Male Sprague-Dawley rats", "conditions": "oral, hyperalgesic foot withdrawal 3 h after carrageenan", "description": "Rat Carrageenan-induced Analgesia Test\nThe analgesia test using rat carrageenan was performed with materials, reagents and procedures essentially as described by Hargreaves, et al., (Pain, 32, 77 (1988)). Male Sprague-Dawley rats were treated as previously described for the Carrageenan Foot Pad Edema test. Three hours after the injection of the carrageenan, the rats were placed in a special plexiglass container with a transparent floor having a high intensity lamp as a radiant heat source, positionable under the floor. After an initial twenty minute period, thermal stimulation was begun on either the injected foot or on the contralateral uninjected foot. A photoelectric cell turned off the lamp and timer when light was interrupted by paw withdrawal. The time until the rat withdraws its foot was then measured. The withdrawal latency in seconds was determined for the control and drug-treated groups, and percent inhibition of the hyperalgesic foot withdrawal determined."}},
  "data": [
    {"smiles": "CS(=O)(=O)c1ccc(-c2oc(CCc3ccccc3)nc2-c2ccc(F)cc2)cc1", "note": "[Example 1, 4-(4-fluorophenyl)-2-(2-phenylethyl)-5-(4-(methylsulfonyl)phenyl)oxazole]", "values": [
      {"measurement": "IC50", "setting": "COX-1", "result": 6.9, "unit": "µM"},
      {"measurement": "RAT PAW EDEMA % Inhibition (* @ 20 mg/kg body weight)", "setting": "carrageenan foot edema", "result": 41, "unit": "%"},
      {"measurement": "IC50", "setting": "COX-2", "result": "< 0.1", "unit": "µM"},
      {"measurement": "ANALGESIA % Inhibition @ 20 mg/kg body weight", "setting": "[1]", "result": 44, "unit": "%"}
    ]}
  ]
}
